# Test results: patent US20090220534A1, “METHODS FOR IDENTIFYING T-CELL EPITOPES ASSOCIATED WITH IMPAIRED PEPTIDE PROCESSING AND APPLICATIONS OF THE IDENTIFIED EPITOPES” (Leiden University Medical Center, priority 2006, published 2009)
# Legend:
# [1] = system: TAP-deficient RMA-S lymphoma cells; assay: Peptide immunization and challenge with RMA-S tumor cells; type: in vivo; conditions: with T helper peptide and CpG oligonucleotides, B6 mice
# Excerpt: Groups of B6 mice (n=10) were immunized with synthetic peptides comprising TEIPP Db peptide MCLRMTAVM or control Db peptide SSPVNSLRNVV51 combined with T helper peptide EPLTSLTPRCNTAWNRLKL29 and CpG oligonucleotides 28 and challenged with TAP-deficient RMA-S lymphoma cells. Mice were challenged at day 0 and immunized at days −14, 7 and 14. Immunization with irradiated RMA-S.B7 cells served as positive control.
# We therefore immunized groups of mice with the newly identified Db-restricted TEIPP CTL epitope, or a control CTL epitope, in combination with a previously identified tumor-specific CD4+ T-helper epitope (29), and challenged the mice with a tumorigenic dose of RMA-S cells.
# B6 mice were immunized with synthetic peptides by s.c. injections of 100 μg of peptide, 50 μg T-helper peptide EPLTSLTPRCNTAWNRLKL 29 and 40 μg Toll-Like Receptor 9 ligand CpG oligonucleotides 28 per mouse in a total volume of 200 μl PBS. Mice were challenged s.c. at the opposite flank with 8×10^5 RMA-S cells in PBS.
# Db-restricted TEIPP CTL = assay: Peptide recognition by Db-restricted TEIPP CTL (IFNγ release); type: cell-based, mouse; conditions: synthetic peptide in titrating amounts
# Excerpt: Kb-restricted (a) and Db-restricted TEIPP-CTL (b) respond to human TAP-deficient T2 cells with stable expression of Kb or Db when exogenously loaded with synthetic peptide libraries. Libraries contained peptides with Kb- or Db-binding motifs, Kb lib: xxxxFxxI/L/M (complexity of approximately 108) and Db lib: xxxxNxxxI/L/M (complexity of approximately 109), where x is random for all amino acids. (c-d) Db molecules from RMA-S cells (1011) were immunoaffinity purified and acid eluted peptides were separated by reversed phase HPLC, applying an increasing acetonitril gradient (OD214 left axis, % acetonitril right axis) (c). HPLC fractions were loaded unto T2.Db cells and TEIPP-specific, Db-restricted CTL were applied to detect the eluted peptide-epitope (d). […] Of note, CTL recognition of HPLC fractions depended on the presence of the relevant class I molecule on target cells (not shown). (e) MCLRMTAVM peptide is processed and presented from the Trh4 gene. The Trh4 gene was cloned from RMA-S cells using gene-specific primers. Trh4 gene in the reversed orientation (Trh4r) served as control plasmid. […]
# (§1) Cytolytic activity of CTL was measured by chromium (^51Cr) release assay, as described before (16). CTL reactivity was also measured by IFNγ release. […] IFNγ content of supernatants was measured by sandwich ELISA technique (at OD 415) as described (47). […]
# [2] = system: TAP-expressing RMA tumor cells; assay: Proteasome inhibitor treatment of target cells, cytolysis by CTL (chromium release); type: cell-based, mouse; conditions: RMA cells treated with proteasome inhibitor
# Protocol: (§2) (a) TEIPP-specific CTL were incubated with a panel of TAP-expressing syngeneic tumor cells (see Materials and Methods for descriptions of tumor cell lines). CTL response against TAP-deficient RMA-S in this experiment was 44 ng/ml. (b) Pre-treatment of TAP-expressing T-cell lymphoma (RMA) and B-cell lymphoma (786) cells with IFNγ reduced the reactivity of TEIPP-specific CTL, as measured after 6 h. […] Panels depict means of triplicate wells and one of three experiments is shown. (c-e) TAP-expressing RMA tumor cells were treated with the proteasome inhibitor lactacystin and used as targets for cytolysis by two independent TEIPP-specific CTL (c and d) or control RMA-specific CTL (e). […] One representative experiment of three is shown. […] (f-g) TAP-expressing colon carcinoma MC38 (f) and melanoma B16 (g) were loaded with oligo DNA coding a partial antisense sequence of TAP1. Recognition by TEIPP-specific CTL was measured by IFNγ release. […]
# (§3) In order to make an inventory of the deficiencies that can result in TEIPP expression, we assessed the effect of several targeted interventions in the MHC class I processing pathway. […]
# as §1
# [3] = system: MC38 colon carcinoma cells and B16 melanoma cells; assay: TAP1 antisense oligonucleotide treatment of tumor cells, recognition by TEIPP-specific CTL (IFNγ release); type: cell-based, mouse
# Protocol: as §2, §3, §1
# [4] = system: RMA, 786 and RMA-S tumor cells; assay: IFNγ pre-treatment of tumor cells, recognition by CTL; type: cell-based, mouse
# Protocol: (a) TEIPP-specific CTL were incubated with a panel of TAP-expressing syngeneic tumor cells (see Materials and Methods for descriptions of tumor cell lines). CTL response against TAP-deficient RMA-S in this experiment was 44 ng/ml. (b) Pre-treatment of TAP-expressing T-cell lymphoma (RMA) and B-cell lymphoma (786) cells with IFNγ reduced the reactivity of TEIPP-specific CTL, as measured after 6 h. […] Panels depict means of triplicate wells and one of three experiments is shown. (c-e) TAP-expressing RMA tumor cells were treated with the proteasome inhibitor lactacystin and used as targets for cytolysis by two independent TEIPP-specific CTL (c and d) or control RMA-specific CTL (e). […] One representative experiment of three is shown. […] (f-g) TAP-expressing colon carcinoma MC38 (f) and melanoma B16 (g) were loaded with oligo DNA coding a partial antisense sequence of TAP1. Recognition by TEIPP-specific CTL was measured by IFNγ release. […] (h) Tapasin−/− LPS B cell blasts are recognized by TEIPP-specific CTL in a CD8-dependent manner. Spleens of TAP1−/−, Tapasin−/− or wild type B6 mice were cultured with LPS and used as targets for TEIPP-specific CTL.
# Thus far, only cells of hematopoietic origin had been tested against TEIPP-specific CTL. […] Likewise, TEIPP-specific CTL recognized immortalized mouse embryo fibroblasts from TAP1−/− origin (FIG. 2c). […] For instance, RMA, the TAP-expressing counterpart of RMA-S against which these T cells were raised, was also recognized by TEIPP-directed CTL, albeit to lower extent (FIG. 3a). Furthermore, the TEIPP-specific CTL recognized two independent TAP-expressing murine leukemia virus-induced B cell lymphomas (FIG. 3a, lines 771 and 786) and, of the tumor targets of non-hematopoietic origin, HPV type 16-transformed fibroblasts (FIG. 3a, line TC1). All these tumor cells expressed TAP, as illustrated by the fact that they serve as proper targets for control CTL that react against defined, TAP-dependent epitopes 15, 16. We therefore considered the possibility that partial deficiencies in MHC class I antigen processing may account for the recognition of several TAP-expressing murine tumor cells by TEIPP-specific CTL. Such partial defects are commonly found in human cancers 5. We examined this idea by treatment of RMA cells with IFNγ, which is known to enhance MHC class I antigen processing at multiple levels, including the transcription of TAP 17. […] In contrast, recognition by RMA-specific control CTL was increased (data not shown).
# as §1
compound,measurement,setting,value
MCLRMTAVM,tumor protection after immunization,[1],tumor protection in the majority of mice
same,recognition by Db-restricted TEIPP CTL,Db-restricted TEIPP CTL,"efficiently recognized by the Db-restricted TEIPP CTL, at much lower concentration than the mimotope peptide"
CC(=O)N[C@@H](CSC(=O)[C@]1([C@@H](O)C(C)C)NC(=O)[C@H](C)[C@@H]1O)C(=O)O [lactacystin],recognition of treated RMA cells by control CTL,[2],decreased
same,sensitivity of treated RMA cells to lysis by TEIPP-specific CTL,[2],increased their sensitivity to lysis by these CTL
TAP1-specific anti-sense oligonucleotides: 'morpholino' oligonucleotides encoding the antisense sequence of mouse TAP1 (5′-AGAGTCTGGTCCTAGCCTGGGA-3′) (all phosphorodiamidate morpholino (PMO)),recognition of treated cells by TEIPP-specific CTL,[3],increased recognition by TEIPP-specific CTL
IFNγ: interferon gamma used to pre-treat tumor cells,recognition of pretreated cells by TEIPP-specific CTL,[4]; RMA cells,reduced recognition of these cells by TEIPP-specific CTL
same,recognition of pretreated cells by RMA-specific control CTL,"[4]; RMA cells, data not shown",increased
same,MHC class I surface expression,"[4]; RMA cells, not shown",increased three-fold
same,recognition of pretreated cells by CTL,"[4]; RMA-S cells, data not shown",did not result in an increased recognition
control peptide: control Db peptide SSPVNSLRNVV used for immunization,tumor protection after immunization,[1],developed progressively growing tumors
